The values that follow come from PMC10154249, “Unique progerin C-terminal peptide ameliorates Hutchinson–Gilford progeria syndrome phenotype by rescuing BUBR1” (Nature Aging, 2023).

The test system of assay [1] is BUBR1 in IMR90-progerin cells. As to the kind of experiment: Western blot of BUBR1 in progerin-expressing IMR90 cells. Format: cell-based, human. On the procedure: Western blot was performed as previously described. Cells were lysed in 1× Laemmli sample buffer after washing twice in cold PBS without calcium and magnesium. Protein concentrations were determined using the bicinchoninic acid (BCA) protein assay. Protein lysates were subjected to SDS–PAGE, transferred to 0.45-μm pore size hydrophobic PVDF transfer membrane (Merck Millipore), detected with the appropriate primary antibodies coupled with horseradish peroxidase-conjugated corresponding secondary antibodies, and visualized using enhanced chemiluminescence ECL reagent (GE Healthcare). The Tanon 5500 high-definition low-illumination CCD system (Tanon FLI Capture v.1.02) was used to capture chemiluminescent signals.
(In general: Immunoblotting shows a protein as a band on a membrane.)

The test system of another assay is Lmna^G609G/G609G mice. Description: Bodyweight of Lmna^G609G/G609G mice. Type of assay: in vivo, mouse. The note with it: 20 mg kg^–1 i.p. every other day from 14 days of age. The text has this:
All animal experiments were approved by the Ethics Committee of School of Life Sciences, Northeast Normal University, China (AP20191011) and carried out in accordance with the relevant guidelines: National Standards of the People’s Republic of China (GB/T 35892–2018), Laboratory Animal—Guideline for Ethical Review of Animal Welfare. We generated a mouse model (ICR background), carrying the Lmna^G609G using the BE4-Gam system. The protocols for the BE4-Gam system and microinjection of pronuclear-stage embryos have been described in detail previously[37],[38],[59]. Briefly, a mixture of BE4-Gam mRNA (200 ng μl^–1) and sgRNA-Lmna (30 ng μl^–1) was coinjected into the cytoplasm of pronuclear-stage embryos of the mouse. The injected embryos were transferred to embryo culture medium for 30–60 min, followed by transferring the injected embryos into the recipient mother. The embryos continued to develop and the founder mice (referred to as F0) were born: wild-type mice (Lmna^+/+), heterozygous mice (Lmna^G609G/+) and homozygous mice (Lmna^G609G/G609G). […]
For UPCP injection, 14-day-old Lmna^G609G/G609G mice were injected intraperitoneally with either PBS or UPCP (20 mg kg^–1, every other day) and wild-type mice were injected with PBS. […] Bodyweight and lifespan were monitored after UPCP treatment. The survival rate was analyzed by the Kaplan–Meier method. […]

The next assay deals with senescent IMR90 cells. As to the kind of experiment: SA-β-gal staining of DNA damage-induced senescent IMR90 cells. Format: cell-based, human. Particulars: for SA-β-gal positive cells: UPCP 6 μM 5 days. On the procedure:
Fibroblasts from patients with HGPS were obtained from The Progeria Research Foundation Cell and Tissue Bank (http://www.progeriaresearch.org). The following fibroblasts were used: HGADFN003, HGADFN167, HGMDFN090 and HGFDFN168. Human dermal fibroblasts (GM00038 and AG09602) were obtained from Coriell Cell Repository (https://catalog.coriell.org). These cells were characterized by DNA fingerprinting and isozyme detection and were tested by a MycoBlue Mycoplasma Detector (Vazyme Biotech) to exclude mycoplasma contamination before the experiments. […] HGADFN003, HGADFN167, HGMDFN090, HGFDFN168, GM00038 and AG09602 were cultured in DMEM medium with 15% (v/v) fetal bovine serum (VivaCell). All cell lines were grown at 37 °C with 5% CO2 and IMR90, CRL-1474, HGADFN003, HGADFN167, HGMDFN090, HGFDFN168, GM00038 and AG09602 were cultured with 5% O2. For bleomycin-induced senescence, IMR90 cells were incubated with the culture medium containing 20 μg ml^–1 Bleomycin (Selleck, catalog no. S1214) for 2 h and analyzed 10 days later, or as otherwise indicated. For doxorubicin-induced senescence, IMR90 cells were treated twice with 100 nM Doxorubicin (Selleck, catalog no. S1208) with a 2 day interval and analyzed 10 days later, or as otherwise indicated. For ionizing radiation (IR)-induced senescence, IMR90 cells were exposed to 10 Gy Gamma rays, and analyzed 10 days later, or as otherwise indicated, the control IMR90 cells were mock irradiated. For etoposide-induced senescence, IMR90 cells incubated with the culture medium containing 10 μM Etoposide (Sigma, catalog no. E1383) for 48 h and analyzed 10 days later, or as otherwise indicated.
SA-β-gal staining was performed as previously described. Cells were fixed in 0.5% glutaraldehyde for 15 min at room temperature, washed three times with PBS (pH 6.0) containing 1 mM MgCl2 and exposed overnight 37 °C to containing 1 mg ml^–1 5-bromo-4-chloro-3-indolyl-β-D-galactopyranoside (MCE, catalog no. HY-15934), 0.12 mM potassium ferrocyanide (Sigma, catalog no. P3289), 0.12 mM potassium ferricyanide (Sigma, catalog no. P8131) and 1 mM MgCl2 PBS buffer (pH 6.0). Cells were washed three times with H2O and observed under a microscope (OLYMPUS CKX53). SA-β-gal positive cells were quantified by investigators who were blinded to the identity of the analyzed cell.

The next assay has as its system PTBP1–BUBR1 mRNA 3′-UTR. Description: RIP assay of PTBP1 and BUBR1 mRNA 3′-UTR in HEK-293T cells. Type of assay: cell-based. Particulars: for PTBP1 enrichment on BUBR1-3'UTR (2-ΔΔCt): Fig. 4n, PTBP1+progerin+UPCP, P=0.0491 vs PTBP1+progerin. The method, then:
RIP and RNA pulldown assays were performed as previously described. The RIP experiment was carried out using the EZ-Magna RIP Kit (Millipore, catalog no. 17-701). The coprecipitated RNAs were extracted through Trizol reagent and detected by RT-PCR. The primer sequences for PCR, synthesized by Comate Bioscience, were as follows:
BUBR1-3′UTR_fwd (5′-[…]-3′) and BUBR1-3′UTR_rev (5′- […]-3′).

For the substance “H-YGRKKRRQRRRYNLRSRTVLCGTCGQPADKASASGSGAQSPQNCSIM-OH (cysteines drawn unpaired) [UPCP, unique progerin C-terminal peptide]”, in assay [1], the BUBR1 abundance result is on record as “upregulated BUBR1”. In addition, the “bodyweight, female” value in the assay with Lmna^G609G/G609G mice (female) is reported as “slow down the bodyweight loss”. In the assay on Lmna^G609G/G609G mice (male), the “bodyweight, male” value is given as “increase the bodyweight”. The SA-β-gal positive cells with senescent IMR90 cells (BLM (bleomycin 20 μg/mL 2 h), replicate 1) amounted to 71.6418%; in the assay on senescent IMR90 cells (BLM (bleomycin 20 μg/mL 2 h), replicate 2), 81.25%; in the assay with senescent IMR90 cells (BLM (bleomycin 20 μg/mL 2 h), replicate 3) it was 74.0741%; with senescent IMR90 cells (Dox (doxorubicin 100 nM twice), replicate 1) it was 76.4706%; with senescent IMR90 cells (Dox (doxorubicin 100 nM twice), replicate 2), 84.6154%; with senescent IMR90 cells (Dox (doxorubicin 100 nM twice), replicate 3), 66.1539%. Further, the SA-β-gal positive cells in the assay with senescent IMR90 cells (Eto (etoposide 10 μM 48 h), replicate 1) was 80.4348%; in the assay on senescent IMR90 cells (Eto (etoposide 10 μM 48 h), replicate 2), 71.7949%; in the assay with senescent IMR90 cells (Eto (etoposide 10 μM 48 h), replicate 3), 70.9091%; with senescent IMR90 cells (IR (10 Gy), replicate 1), 77.4193%; in the assay with senescent IMR90 cells (IR (10 Gy), replicate 2), 75.5814%; in the assay on senescent IMR90 cells (IR (10 Gy), replicate 3), 70.4545%. Moreover, the “rescue of phenotype of DNA damage-induced senescent cells” value in the assay with senescent IMR90 cells (IMR90, 10 days after bleomycin, doxorubicin, ionizing radiation or etoposide) was “failed to rescue the progeria phenotype of these cells”. Also, the “PTBP1 enrichment on BUBR1-3'UTR (2-ΔΔCt)” value in the assay with PTBP1–BUBR1 mRNA 3′-UTR (replicate 1) is recorded as 9.032; in the assay on PTBP1–BUBR1 mRNA 3′-UTR (replicate 2), 10.1759; with PTBP1–BUBR1 mRNA 3′-UTR (replicate 3), 11.8972. Besides, in the assay on PTBP1–BUBR1 mRNA 3′-UTR (RIP and RNA pulldown, HEK-293T with or without UPCP), the “binding of PTBP1 to BUBR1 mRNA 3ʹ-UTR” value was “promoted PTBP1 to bind”.
